Data as given in publication PMC4385830, “Group I Paks as therapeutic targets in NF2-deficient meningioma” (Oncotarget, 2015).

Legend:
Experiment in all cases: Kinase selectivity, Z'-LYTE
Format in all cases: biochemical
[1] = target: T1, AXL (Homo sapiens, UniProt P30530)
T1 construct: purchased Invitrogen (Life Technologies) SelectScreen Z'-LYTE
T1 sequence (P30530 26-894): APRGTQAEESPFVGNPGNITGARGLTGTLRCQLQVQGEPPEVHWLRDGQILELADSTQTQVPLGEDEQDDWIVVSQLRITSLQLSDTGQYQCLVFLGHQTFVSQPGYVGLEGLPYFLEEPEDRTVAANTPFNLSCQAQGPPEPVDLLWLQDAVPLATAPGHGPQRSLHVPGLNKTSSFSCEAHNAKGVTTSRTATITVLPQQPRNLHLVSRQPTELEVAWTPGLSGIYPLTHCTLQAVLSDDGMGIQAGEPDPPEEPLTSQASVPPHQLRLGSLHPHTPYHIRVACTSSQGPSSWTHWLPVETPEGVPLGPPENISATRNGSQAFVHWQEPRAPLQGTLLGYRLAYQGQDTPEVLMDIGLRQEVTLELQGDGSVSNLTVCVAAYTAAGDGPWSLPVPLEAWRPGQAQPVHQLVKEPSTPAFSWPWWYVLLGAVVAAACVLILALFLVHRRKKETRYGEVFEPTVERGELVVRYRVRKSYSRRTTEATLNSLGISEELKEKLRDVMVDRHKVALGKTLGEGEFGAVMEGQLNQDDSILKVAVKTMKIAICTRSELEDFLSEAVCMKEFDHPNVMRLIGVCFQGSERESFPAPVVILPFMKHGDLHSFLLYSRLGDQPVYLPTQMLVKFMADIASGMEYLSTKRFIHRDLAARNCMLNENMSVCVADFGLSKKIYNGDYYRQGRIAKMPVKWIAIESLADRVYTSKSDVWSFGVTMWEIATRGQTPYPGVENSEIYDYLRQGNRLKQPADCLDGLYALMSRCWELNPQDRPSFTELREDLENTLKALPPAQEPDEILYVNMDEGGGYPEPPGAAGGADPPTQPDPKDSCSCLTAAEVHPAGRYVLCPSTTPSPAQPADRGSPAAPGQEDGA
How it was run: (§1)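 Each recombinant kinase phosphorylates a peptide substrate under conditions optimized for that enzyme. A protease then cleaves only non-phosphorylated peptide, and the fluorescence change reports kinase activity.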

[2] = target: T2, G3K3A (G3K3 alpha) (Homo sapiens, UniProt P49840)
T2 construct: purchased Invitrogen (Life Technologies) SelectScreen Z'-LYTE
How it was run: as §1

[3] = target: T3, JAK3 (Homo sapiens, UniProt P52333)
T3 construct: purchased Invitrogen (Life Technologies) SelectScreen Z'-LYTE
T3 sequence (P52333 1-1124): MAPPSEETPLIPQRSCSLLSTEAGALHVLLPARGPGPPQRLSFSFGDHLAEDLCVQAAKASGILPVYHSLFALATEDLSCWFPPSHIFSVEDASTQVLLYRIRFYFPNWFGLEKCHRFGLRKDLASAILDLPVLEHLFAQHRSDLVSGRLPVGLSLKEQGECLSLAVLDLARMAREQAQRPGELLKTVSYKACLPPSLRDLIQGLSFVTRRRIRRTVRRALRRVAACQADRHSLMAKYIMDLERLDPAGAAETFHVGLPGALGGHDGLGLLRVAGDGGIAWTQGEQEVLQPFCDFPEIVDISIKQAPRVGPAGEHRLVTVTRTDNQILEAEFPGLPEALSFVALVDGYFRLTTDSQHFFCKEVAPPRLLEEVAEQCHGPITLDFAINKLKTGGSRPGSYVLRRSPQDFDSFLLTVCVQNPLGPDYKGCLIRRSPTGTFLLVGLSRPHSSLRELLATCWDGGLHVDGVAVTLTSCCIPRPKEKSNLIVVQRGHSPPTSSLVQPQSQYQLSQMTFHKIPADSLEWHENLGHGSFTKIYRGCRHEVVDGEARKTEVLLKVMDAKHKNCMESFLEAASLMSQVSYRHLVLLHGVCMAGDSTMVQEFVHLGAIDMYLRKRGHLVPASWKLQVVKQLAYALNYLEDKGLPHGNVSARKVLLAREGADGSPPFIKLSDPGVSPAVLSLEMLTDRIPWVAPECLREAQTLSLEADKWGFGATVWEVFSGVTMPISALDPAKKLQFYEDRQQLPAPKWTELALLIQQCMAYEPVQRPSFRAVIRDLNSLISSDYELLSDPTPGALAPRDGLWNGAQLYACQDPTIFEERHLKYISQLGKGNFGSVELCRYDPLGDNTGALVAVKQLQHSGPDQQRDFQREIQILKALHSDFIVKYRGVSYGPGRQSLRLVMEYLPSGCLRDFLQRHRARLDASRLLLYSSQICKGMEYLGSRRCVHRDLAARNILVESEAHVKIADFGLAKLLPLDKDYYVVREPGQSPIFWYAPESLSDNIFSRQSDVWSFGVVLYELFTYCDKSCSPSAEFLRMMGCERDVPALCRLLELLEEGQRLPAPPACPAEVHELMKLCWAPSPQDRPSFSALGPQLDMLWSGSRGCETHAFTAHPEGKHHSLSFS
How it was run: as §1

[4] = target: T4, PIM2 (Homo sapiens, UniProt Q9P1W9)
T4 construct: purchased Invitrogen (Life Technologies) SelectScreen Z'-LYTE
How it was run: as §1

[5] = target: T5, PRKACA (PKA) (Homo sapiens, UniProt P17612)
T5 construct: purchased Invitrogen (Life Technologies) SelectScreen Z'-LYTE
How it was run: as §1

[6] = target: T6, YES1 (Homo sapiens, UniProt P07947)
T6 construct: purchased Invitrogen (Life Technologies) SelectScreen Z'-LYTE
How it was run: as §1

[7] = target: T7, ZAP70 (Homo sapiens, UniProt P43403)
T7 construct: purchased Invitrogen (Life Technologies) SelectScreen Z'-LYTE
T7 sequence (P43403 1-619): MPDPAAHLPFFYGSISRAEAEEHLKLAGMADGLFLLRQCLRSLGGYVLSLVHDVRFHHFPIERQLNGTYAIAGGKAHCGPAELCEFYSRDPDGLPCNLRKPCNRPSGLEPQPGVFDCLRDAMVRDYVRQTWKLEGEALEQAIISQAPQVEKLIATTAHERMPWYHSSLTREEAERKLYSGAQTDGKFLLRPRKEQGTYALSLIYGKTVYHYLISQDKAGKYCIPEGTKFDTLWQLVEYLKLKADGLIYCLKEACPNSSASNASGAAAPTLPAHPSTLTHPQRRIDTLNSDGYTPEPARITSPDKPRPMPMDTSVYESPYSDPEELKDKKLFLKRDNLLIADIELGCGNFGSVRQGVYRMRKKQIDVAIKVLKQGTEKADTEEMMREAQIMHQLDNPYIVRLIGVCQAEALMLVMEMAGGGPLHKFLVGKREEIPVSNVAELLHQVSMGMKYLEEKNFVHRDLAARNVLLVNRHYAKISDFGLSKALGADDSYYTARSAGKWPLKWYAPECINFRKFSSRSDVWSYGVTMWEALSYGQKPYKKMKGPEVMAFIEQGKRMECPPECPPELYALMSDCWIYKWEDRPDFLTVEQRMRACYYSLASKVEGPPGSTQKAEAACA
How it was run: as §1

T2 sequence (P49840 whole entry): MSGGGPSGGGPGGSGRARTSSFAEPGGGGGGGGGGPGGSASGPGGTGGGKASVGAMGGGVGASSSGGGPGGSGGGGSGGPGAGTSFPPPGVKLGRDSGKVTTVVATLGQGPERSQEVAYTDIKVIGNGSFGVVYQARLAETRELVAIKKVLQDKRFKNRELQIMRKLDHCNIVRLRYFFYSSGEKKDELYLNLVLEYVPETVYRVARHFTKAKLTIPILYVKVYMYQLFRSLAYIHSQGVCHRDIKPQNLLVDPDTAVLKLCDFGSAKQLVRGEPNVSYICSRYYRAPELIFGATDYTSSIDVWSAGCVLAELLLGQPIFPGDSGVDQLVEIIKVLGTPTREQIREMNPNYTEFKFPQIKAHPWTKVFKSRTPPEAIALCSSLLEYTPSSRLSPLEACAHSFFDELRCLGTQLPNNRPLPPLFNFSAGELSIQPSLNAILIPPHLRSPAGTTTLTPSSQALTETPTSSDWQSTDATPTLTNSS
T4 sequence (Q9P1W9 whole entry): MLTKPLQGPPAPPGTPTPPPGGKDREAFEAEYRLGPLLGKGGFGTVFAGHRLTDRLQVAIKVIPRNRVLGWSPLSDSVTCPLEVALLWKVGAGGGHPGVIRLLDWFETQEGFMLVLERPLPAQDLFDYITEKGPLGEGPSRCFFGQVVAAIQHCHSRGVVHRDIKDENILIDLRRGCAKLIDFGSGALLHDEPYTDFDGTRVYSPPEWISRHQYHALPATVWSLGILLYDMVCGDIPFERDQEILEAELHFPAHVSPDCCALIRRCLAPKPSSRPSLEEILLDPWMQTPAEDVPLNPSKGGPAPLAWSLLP
T6 sequence (P07947 whole entry): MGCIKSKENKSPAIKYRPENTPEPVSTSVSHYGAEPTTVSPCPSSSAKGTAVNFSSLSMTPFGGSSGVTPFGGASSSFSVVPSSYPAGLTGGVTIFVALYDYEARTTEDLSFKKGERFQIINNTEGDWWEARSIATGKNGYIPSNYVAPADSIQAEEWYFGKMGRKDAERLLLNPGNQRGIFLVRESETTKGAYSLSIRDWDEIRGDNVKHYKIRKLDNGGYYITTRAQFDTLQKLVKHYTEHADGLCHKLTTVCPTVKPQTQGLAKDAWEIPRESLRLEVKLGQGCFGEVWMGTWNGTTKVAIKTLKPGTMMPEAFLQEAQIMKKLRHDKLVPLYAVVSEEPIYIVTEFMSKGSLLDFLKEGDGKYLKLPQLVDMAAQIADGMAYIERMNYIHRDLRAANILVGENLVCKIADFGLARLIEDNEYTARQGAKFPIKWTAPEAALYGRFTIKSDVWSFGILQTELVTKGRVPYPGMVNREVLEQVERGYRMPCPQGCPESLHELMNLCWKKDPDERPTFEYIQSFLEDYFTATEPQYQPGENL

Row | Compound | % inhibition of activity [1] [%] | % inhibition of activity [2] [%] | % inhibition of activity [3] [%] | % inhibition of activity [4] [%] | % inhibition of activity [5] [%] | % inhibition of activity [6] [%] | % inhibition of activity [7] [%]
1 | CCn1c(=O)c(-c2ccc(-c3cncc(C)n3)cc2Cl)cc2cnc(NCCC3CCN(C)CC3)nc21 [Frax1036] | 21 | 7 | 0 | 3 | 1 | 18 | 3
2 | Cc1nc(Nc2[nH]nc3c2CN(C(=O)N[C@H](CN(C)C)c2ccccc2)C3(C)C)c2sccc2n1 [PF3758309, reference compound] | 67 | 52 | 10 | 4 | 100 | 86 | 10
3 | CCn1c(=O)c(-c2ccc(-c3noc(C)n3)cc2Cl)cc2cnc(Nc3ccc(C4CCN(C)CC4)cc3)nc21 [Frax716] | 45 | −9 | 3 | 1 | 7 | 89 | 8
